In patent US20090117563A1, “Identification of TRPML3 (MCOLN3) as a Salty Taste Receptor and Use in Assays for Identifying Taste (Salty) Modulators and/or Therapeutics that Modulate Sodium Transport, Absorption or Excretion and/or Aldosterone and/or Vasopressin Production or Release” (priority 2007, published 2009):

Biological target: T1, human TRPML3 (Homo sapiens, UniProt Q8TDD5)
T1 construct: expressed in transfected cells
T1 sequence (Q8TDD5 1-553): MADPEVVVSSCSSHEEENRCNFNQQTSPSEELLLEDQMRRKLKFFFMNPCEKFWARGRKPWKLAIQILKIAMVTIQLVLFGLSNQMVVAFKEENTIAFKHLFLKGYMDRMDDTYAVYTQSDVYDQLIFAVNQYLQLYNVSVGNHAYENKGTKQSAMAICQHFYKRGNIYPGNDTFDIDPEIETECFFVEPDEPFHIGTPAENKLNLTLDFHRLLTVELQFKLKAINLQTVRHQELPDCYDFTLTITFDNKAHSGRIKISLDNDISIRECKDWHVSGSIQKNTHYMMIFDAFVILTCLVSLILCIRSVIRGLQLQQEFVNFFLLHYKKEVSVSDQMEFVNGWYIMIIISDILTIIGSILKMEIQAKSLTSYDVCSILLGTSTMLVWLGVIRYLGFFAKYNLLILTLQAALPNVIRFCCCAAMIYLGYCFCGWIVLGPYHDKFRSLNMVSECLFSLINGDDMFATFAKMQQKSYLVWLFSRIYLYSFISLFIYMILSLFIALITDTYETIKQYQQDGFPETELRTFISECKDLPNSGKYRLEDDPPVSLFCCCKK
Test: Two-electrode voltage clamp in oocytes injected with human TRPML3 cRNA
Format: cell-based
Details: 300 uM gadolinium (GdCl3) solution; −100 to +60 mV
Protocol: Twenty-four to forty-eight hours following microinjection of 10-25 ng human TRPML3 cRNA, TRPML3 function is measured in oocytes using the two-electrode voltage clamp technique on an OpusXpress 6000A parallel oocyte voltage clamp system (MDS Analytical Technologies). The two-electrode voltage clamp technique is an electrophysiology method that measures the macroscopic electrical current flowing across the entire oocyte membrane though protein channels (Stuhmer, Methods in Enzymology (1992) 207: 319-339). Oocytes are impaled with a voltage-sensing electrode and a current-sensing electrode; the voltage, or potential difference across the oocyte membrane, is clamped to a particular value using the voltage-sensing electrode and the current, or the flow of ions across the oocyte membrane, required to maintain that voltage is measured using the current-sensing electrode. […]
If the compound functions as a TRPML3 enhancer, the current passing through TRPML3 channels in the oocyte membrane increases (becomes more negative). […] To quantitate the effect of a compound on TRPML3 function, the following formula is used: […]
This value corresponds to the magnitude of the current change due to compound divided by the magnitude of the current change due to NMDG multiplied by −100%. […] All four oocytes expressed TRPML3, as evidenced by the inhibitory effect of NMDG on measured oocyte currents. […]

[Cl][Gd]([Cl])[Cl] [gadolinium, gadolinium chloride]
effect on TRPML3 current and slope of the I/V curve: blocks TRPML3 current and decreases the slope of the I/V curve
